Reference: patent publication US4472304A, “(Amido)N-substituted bleomycins, salts thereof and process for preparation thereof” (Nippon Kayaku Kabushiki Kaisha, priority 1981, dated 1984)

Key:
[1] = system: Mycobacterium smegmatis ATCC 607; experiment: Antimicrobial activity against Mycobacterium smegmatis ATCC 607 (agar plate-cylinder); format: cell-based; conditions: standard bleomycin A2 (copper-free) assumed 1,000 mcg potency/mg
Method: (§1) 2. ANT[…] MYC[…] ATCC 607 AND BACILLUS SUBTILIS
(§2) The antimicrobial activity was tested against the captioned test organisms by the method of agar plate-cylinder. The activity was recorded on the assumption that the activity of standard sample of bleomycin A2 (copper-free form) is 1,000 mcg poteney/mg.

Bacillus subtilis = experiment: Antimicrobial activity against Bacillus subtilis (agar plate-cylinder); format: cell-based; conditions: standard bleomycin A2 (copper-free) assumed 1,000 mcg potency/mg
Method: as §1, §2

| Compound | Antimicrobial potency of Cu-free compound against Mycobacterium smegmatis ATCC 607 [1] [mcg potency/mg] | Antimicrobial potency of Cu-free compound against Bacillus subtilis (Bacillus subtilis) [mcg potency/mg] |
| --- | --- | --- |
| Cc1c(N)nc(C(CC(N)=O)NCC(N)C(=O)NCc2ccc(Cl)cc2)nc1C(=O)NC(C(=O)NC(C)C(O)C(C)C(=O)NC(C(=O)NCCc1nc(-c2nc(C(=O)NCCCNC(C)c3ccccc3)cs2)cs1)C(C)O)C(OC1OC(CO)C(O)C(O)C1OC1OC(CO)C(O)C(OC(N)=O)C1O)c1cnc[nH]1 [Compound 24, 3-((S)-1'-phenylethyl)aminopropylamino-(amido)N--[p-chlorobenzyl]-BLM] | 56328 | 1184 |
| CCCCCCCCCCCCCCCCCCNC(=O)C(N)CNC(CC(N)=O)c1nc(N)c(C)c(C(=O)NC(C(=O)NC(C)C(O)C(C)C(=O)NC(C(=O)NCCc2nc(-c3nc(C(=O)NCCCNC(C)c4ccccc4)cs3)cs2)C(C)O)C(OC2OC(CO)C(O)C(O)C2OC2OC(CO)C(O)C(OC(N)=O)C2O)c2cnc[nH]2)n1 [Compound 25, 3-((S)-1'-phenylethylamino)propylamino-(amido)N--[stearyl]-BLM] | 210 | 0 |
| CCCCCCCCCCCCNC(=O)C(N)CNC(CC(N)=O)c1nc(N)c(C)c(C(=O)NC(C(=O)NC(C)C(O)C(C)C(=O)NC(C(=O)NCCc2nc(-c3nc(C(=O)NCCCNC(C)c4ccccc4)cs3)cs2)C(C)O)C(OC2OC(CO)C(O)C(O)C2OC2OC(CO)C(O)C(OC(N)=O)C2O)c2cnc[nH]2)n1 [Compound 26, 3-((S)-1'-phenylethylamino)propylamino-(amido)N--[lauryl]-BLM] | 3920 | 384 |
| CCCCCCCCNC(=O)C(N)CNC(CC(N)=O)c1nc(N)c(C)c(C(=O)NC(C(=O)NC(C)C(O)C(C)C(=O)NC(C(=O)NCCc2nc(-c3nc(C(=O)NCCCNC(C)c4ccccc4)cs3)cs2)C(C)O)C(OC2OC(CO)C(O)C(O)C2OC2OC(CO)C(O)C(OC(N)=O)C2O)c2cnc[nH]2)n1 [Compound 27, 3-((S)-1'-phenylethylamino)propylamino-(amido)N--[octyl]-BLM] | 45100 | 886 |
| COc1ccc2[nH]cc(CCNC(=O)C(N)CNC(CC(N)=O)c3nc(N)c(C)c(C(=O)NC(C(=O)NC(C)C(O)C(C)C(=O)NC(C(=O)NCCc4nc(-c5nc(C(=O)NCCCNC(C)c6ccccc6)cs5)cs4)C(C)O)C(OC4OC(CO)C(O)C(O)C4OC4OC(CO)C(O)C(OC(N)=O)C4O)c4cnc[nH]4)n3)c2c1 [Compound 28, 3-((S)-1'-phenylethylamino)propylamino-(amido)N--[5-methyoxyindol-3-ylethyl]-BLM] | 18650 | 586 |
| Cc1c(N)nc(C(CC(N)=O)NCC(N)C(=O)NCCCCCCCCCCCCN)nc1C(=O)NC(C(=O)NC(C)C(O)C(C)C(=O)NC(C(=O)NCCc1nc(-c2nc(C(=O)NCCCNC(C)c3ccccc3)cs2)cs1)C(C)O)C(OC1OC(CO)C(O)C(O)C1OC1OC(CO)C(O)C(OC(N)=O)C1O)c1cnc[nH]1 [Compound 29, 3-((S)-1'-phenylethylamino)propylamino-(amido)N--[do-decanyl]-BLM] | 14200 | 5400 |
| Cc1c(N)nc(C(CC(N)=O)NCC(N)C(=O)NC(Cc2ccccc2)c2ccccc2)nc1C(=O)NC(C(=O)NC(C)C(O)C(C)C(=O)NC(C(=O)NCCc1nc(-c2nc(C(=O)NCCCNC(C)c3ccccc3)cs2)cs1)C(C)O)C(OC1OC(CO)C(O)C(O)C1OC1OC(CO)C(O)C(OC(N)=O)C1O)c1cnc[nH]1 [Compound 30, 3-((S)-1'-phenylethylamino)propylamino-(amido)N--[1',2'-diphenyl-ethyl]-BLM] | 33802 | 190 |
| Cc1c(N)nc(C(CC(N)=O)NCC(N)C(=O)NC(c2ccccc2)c2ccccc2)nc1C(=O)NC(C(=O)NC(C)C(O)C(C)C(=O)NC(C(=O)NCCc1nc(-c2nc(C(=O)NCCCNC(C)c3ccccc3)cs2)cs1)C(C)O)C(OC1OC(CO)C(O)C(O)C1OC1OC(CO)C(O)C(OC(N)=O)C1O)c1cnc[nH]1 [Compound 31, 3-((S)-1'-phenylethylamino)propylamino-(amido)N--[diphenylmethyl]-BLM] | 54645 | 430 |
| Cc1c(N)nc(C(CC(N)=O)NCC(N)C(=O)NC2CCN(Cc3ccccc3)CC2)nc1C(=O)NC(C(=O)NC(C)C(O)C(C)C(=O)NC(C(=O)NCCc1nc(-c2nc(C(=O)NCCCNC(C)c3ccccc3)cs2)cs1)C(C)O)C(OC1OC(CO)C(O)C(O)C1OC1OC(CO)C(O)C(OC(N)=O)C1O)c1cnc[nH]1 [Compound 35, 3-((S)-1'-phenylethylamino)propylamino-(amido)N--[N--benzyl-piperazin-4-yl]-BLM] | 18537 | 2159 |
| CCCCCCCCNC(=O)C(N)CNC(CC(N)=O)c1nc(N)c(C)c(C(=O)NC(C(=O)NC(C)C(O)C(C)C(=O)NC(C(=O)NCCc2nc(-c3nc(C(=O)NCCCN(C)CCCNCc4ccc(Cl)cc4)cs3)cs2)C(C)O)C(OC2OC(CO)C(O)C(O)C2OC2OC(CO)C(O)C(OC(N)=O)C2O)c2cnc[nH]2)n1 (centres unmarked) [Compound 40, 3-{N--methyl-N--[3-(p-chlorobenzyl)aminopropyl]amino}-propylamino-(amido)N--[octyl]-BLM] | 38200 | 1808 |
| Cc1c(N)nc(C(CC(N)=O)NCC(N)C(=O)NC(Cc2ccccc2)c2ccccc2)nc1C(=O)NC(C(=O)NC(C)C(O)C(C)C(=O)NC(C(=O)NCCc1nc(-c2nc(C(=O)NCCCN(C)CCCNCc3ccc(Cl)cc3)cs2)cs1)C(C)O)C(OC1OC(CO)C(O)C(O)C1OC1OC(CO)C(O)C(OC(N)=O)C1O)c1cnc[nH]1 (centres unmarked) [Compound 41, 3-{N--methyl-N--[3-(p-chlorobenzyl)aminopropyl]amino}propyl-amino-(amido)N--[1,2-diphenylethyl]-BLM] | 23342 | 521 |
| Cc1c(N)nc(C(CC(N)=O)NCC(N)C(=O)NC(C)CCCC(C)C)nc1C(=O)NC(C(=O)NC(C)C(O)C(C)C(=O)NC(C(=O)NCCc1nc(-c2nc(C(=O)NCCCN(C)CCCNCc3ccc(Cl)cc3)cs2)cs1)C(C)O)C(OC1OC(CO)C(O)C(O)C1OC1OC(CO)C(O)C(OC(N)=O)C1O)c1cnc[nH]1 (centres unmarked) [Compound 42, 3-{N--methyl-N--[3-(p-chlorobenzyl)aminopropyl]amino}propyl-amino-(amido)N--[1,5-dimethylhexyl]-BLM] | 31834 | 933 |
| CCCCCCCCNC(=O)C(N)CNC(CC(N)=O)c1nc(N)c(C)c(C(=O)NC(C(=O)NC(C)C(O)C(C)C(=O)NC(C(=O)NCCc2nc(-c3nc(C(=O)NCCCN(C)CCCNCCc4ccc(Cl)cc4)cs3)cs2)C(C)O)C(OC2OC(CO)C(O)C(O)C2OC2OC(CO)C(O)C(OC(N)=O)C2O)c2cnc[nH]2)n1 (centres unmarked) [Compound 44] | 38750 | 1898 |
